This passage reports TGI and GI50 results from PubChem BioAssay (NCI).

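In this assay, cells in 96-well plates receive the compound at five concentrations for 48 hours. Endpoints are linearly interpolated between the surrounding concentrations. Abbreviation: GI50, concentration required for 50% inhibition of growth. Definition used: TGI = concentration required for complete inhibition of growth.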

Some test systems named below: EKVX NSCLC; HOP-18 NSCLC; KM20L2 colon; M19-MEL melanoma; OVCAR-5 ovarian; XF 498 CNS; BT-549 breast; DU-145 prostate; PC-3 prostate; T-47D breast.
Assay in all cases: NCI-60 cell line screen, 48 h

As for `COC(=O)C(=O)C(C(=O)C(=O)Nc1cc(C)ccc1C)c1nc2ccc(C(=O)c3ccccc3)cc2[nH]c1=O` (stereo not given), the TGI in the assay on EKVX NSCLC, in the assay on HOP-18 NSCLC, with KM20L2 colon, in the assay with M19-MEL melanoma and with OVCAR-5 ovarian was above 100 µM each time.

Turning to `CCCCN(CCCC)CCCn1cnc2ncccc2c1=O`, the TGI in the assay with EKVX NSCLC, with KM20L2 colon, with M19-MEL melanoma, with OVCAR-5 ovarian and in the assay on XF 498 CNS was above 100 µM throughout.

Regarding `CCOC(=O)C1(Br)S(=O)(=O)OCCOS1(=O)=O`, the TGI with EKVX NSCLC, with KM20L2 colon, in the assay with M19-MEL melanoma, with OVCAR-5 ovarian and in the assay with XF 498 CNS was above 100 µM in each case.

With `C/C(=N\NC(=O)CC(=O)N(C(=O)c1ccc(Cl)cc1)c1ccc(C)cc1)c1ccccc1O`, the TGI in the assay with EKVX NSCLC, in the assay on KM20L2 colon, in the assay on M19-MEL melanoma, in the assay with OVCAR-5 ovarian and with XF 498 CNS was above 100 µM in each case.

As to `O=c1c2c(c1=O)-c1ccccc1CN2`, the TGI with EKVX NSCLC, in the assay with KM20L2 colon, in the assay with M19-MEL melanoma, in the assay with OVCAR-5 ovarian and in the assay with XF 498 CNS was above 100 µM in each case.

In the case of `CCN(CC)CCNc1ccc2nc(C)n3c4ccc(O)cc4c(=O)c1c23`, the TGI amounted to 16.8 µM in the assay with M19-MEL melanoma and 8.1 µM in the assay on OVCAR-5 ovarian.

As for `COc1ccc(N(C)c2nc(Cl)nc3cnn(C)c23)cc1`, the GI50 in the assay with BT-549 breast was 0.0207 µM; with DU-145 prostate, 0.0171 µM; with EKVX NSCLC it was below 0.0178 µM; with OVCAR-5 ovarian, 0.0379 µM; with PC-3 prostate it was below 0.01 µM; in the assay with T-47D breast it was below 0.01 µM. For the same molecule, the TGI is above 71.6 µM in the assay with BT-549 breast; above 100 µM in the assay on DU-145 prostate; above 100 µM in the assay with EKVX NSCLC; above 100 µM in the assay on OVCAR-5 ovarian; above 100 µM with PC-3 prostate; above 100 µM in the assay with T-47D breast.

Turning to `C=CCc1c(O)c(C(=O)/C=C/c2ccccc2)c(OC)c2ccoc12`, the GI50 in the assay on BT-549 breast is 2.63 µM; in the assay on DU-145 prostate, 4.92 µM; in the assay on EKVX NSCLC, 6.13 µM; in the assay on OVCAR-5 ovarian, 3.22 µM; in the assay with PC-3 prostate it was 3.68 µM; with T-47D breast, 4.11 µM. Also, the TGI in the assay on BT-549 breast stood at 8.09 µM; in the assay on DU-145 prostate, 18.1 µM; with EKVX NSCLC it was 20.6 µM; with OVCAR-5 ovarian it was 12.7 µM; in the assay on PC-3 prostate, 16.8 µM; with T-47D breast it was 22.4 µM.

For the molecule `COCc1c(-c2ccc(NC(=O)Nc3cc(C(F)(F)F)ccc3F)c(F)c2)c2c(N)ncnn2c1CN1CCOCC1`, the GI50 with BT-549 breast is 0.776 µM; with DU-145 prostate it was 2.09 µM; in the assay on EKVX NSCLC, 1.71 µM; in the assay with OVCAR-5 ovarian, 3.32 µM; with PC-3 prostate it was 2.88 µM; in the assay with T-47D breast, 2.14 µM. Also, the TGI is 6.13 µM in the assay on BT-549 breast; above 10 µM with DU-145 prostate; 7.62 µM in the assay with EKVX NSCLC; above 10 µM in the assay on OVCAR-5 ovarian; above 10 µM in the assay with PC-3 prostate; 9.95 µM in the assay on T-47D breast.

Regarding `COc1ccc2c(c1)C(=O)c1c-2c(Nc2cccc(C(C)=O)c2)nc2ccccc12`, the GI50 with BT-549 breast was 9.68 µM; in the assay on DU-145 prostate it was 11.7 µM; with EKVX NSCLC, 12.5 µM; in the assay with OVCAR-5 ovarian, 11.4 µM; in the assay with PC-3 prostate, 14.3 µM; in the assay on T-47D breast, 13.6 µM. The TGI with BT-549 breast is 21.4 µM; with DU-145 prostate, 32.2 µM; with EKVX NSCLC it was 32.1 µM; in the assay with OVCAR-5 ovarian it was 24.5 µM; with PC-3 prostate, 32.5 µM; with T-47D breast it was 55.2 µM.

`Nc1c(F)cc(-c2nc3cc(F)ccc3[se]2)cc1Br`: the GI50 in the assay with BT-549 breast is 0.334 µM; in the assay with DU-145 prostate, above 54.8 µM; in the assay on EKVX NSCLC, 0.209 µM; in the assay on OVCAR-5 ovarian, 0.067 µM; in the assay on PC-3 prostate it was 14.5 µM; in the assay with T-47D breast, 0.0578 µM. Also, the TGI in the assay with BT-549 breast was above 27.8 µM; with DU-145 prostate it was above 100 µM; in the assay on EKVX NSCLC, above 100 µM; in the assay with OVCAR-5 ovarian, above 33.5 µM; with PC-3 prostate, above 100 µM; with T-47D breast, 0.631 µM.

For `CCCCCCCC(=O)[O][Hg][CH2]C1COC([CH2][Hg][O]C(=O)CCCCCCC)CO1` (stereo not given), the GI50 is 11.1 µM with BT-549 breast; 18.1 µM with DU-145 prostate; 30.8 µM in the assay with EKVX NSCLC; 20.1 µM in the assay on OVCAR-5 ovarian; 13.7 µM in the assay on PC-3 prostate; 13.1 µM in the assay on T-47D breast. For the same molecule, the TGI in the assay with BT-549 breast came to 23.1 µM; in the assay with DU-145 prostate, 32.2 µM; with EKVX NSCLC, 66.4 µM; in the assay on OVCAR-5 ovarian it was 34.3 µM; in the assay with PC-3 prostate, 26.7 µM; with T-47D breast it was 46.9 µM.

Consider `CCC[CH2][Pb]([Cl])([CH2]CCC)[CH2]CCC`, for which the GI50 is 0.031 µM in the assay on BT-549 breast; 0.0978 µM in the assay with DU-145 prostate; 0.066 µM in the assay with EKVX NSCLC; 0.034 µM in the assay on OVCAR-5 ovarian; 0.0355 µM in the assay on PC-3 prostate; 0.0181 µM in the assay with T-47D breast. In addition, the TGI with BT-549 breast was 0.137 µM; with DU-145 prostate it was 0.22 µM; in the assay with EKVX NSCLC, 0.218 µM; in the assay with OVCAR-5 ovarian, 0.134 µM; with PC-3 prostate, 0.119 µM; in the assay on T-47D breast, 0.0383 µM.

With `COC(=O)[C@]12CC[C@@H](C)[C@H](C)[C@@H]1C1=CC[C@@H]3[C@@]4(C)C(C=O)=C[C@@](C)(COC(=O)/C=C/c5ccccc5)[C@@H]4[C@H](O)C[C@@]3(C)[C@]1(C)CC2`, the GI50 was 6.05 µM in the assay with BT-549 breast; 4.96 µM in the assay with DU-145 prostate; 2.86 µM in the assay with EKVX NSCLC; 3.08 µM in the assay with OVCAR-5 ovarian; 2.22 µM with PC-3 prostate; 4.4 µM in the assay with T-47D breast. Also, the TGI was 63.9 µM with BT-549 breast; 25.9 µM in the assay on DU-145 prostate; 11.5 µM with EKVX NSCLC; 13.6 µM in the assay on OVCAR-5 ovarian; above 100 µM with PC-3 prostate; 84.1 µM in the assay with T-47D breast.

Turning to `COc1cc2c(cc1C)NC(=O)/C2=C\c1c[nH]c2ccccc12`, the GI50 in the assay with BT-549 breast was 17.4 µM; in the assay on DU-145 prostate, 15.3 µM; in the assay with EKVX NSCLC, 10.9 µM; in the assay with OVCAR-5 ovarian, 13.5 µM; in the assay on PC-3 prostate it was 12.2 µM; in the assay on T-47D breast it was 13.2 µM. The TGI came to 36.3 µM in the assay on BT-549 breast; 41.1 µM in the assay on DU-145 prostate; 29.7 µM in the assay with EKVX NSCLC; 42.7 µM with OVCAR-5 ovarian; 31.5 µM in the assay with PC-3 prostate; 45.8 µM in the assay on T-47D breast.
